Columns and labels:
Test in all cases: relative viability (nuclei count vs DMSO), 5 days (fraction); higher = more cells survive
[1] = system: NCI-H727
How it was run: (§1)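 Dosing by pin tool came one day after lung cancer cell lines were seeded in 1536-well plates, using either one drug or a fixed anchor-drug dose plus five library-drug doses (not always all listed) in √10 steps. After 5 days, nuclei were counted on 4× images. Relative viability is treated-well nuclei count divided by vehicle-well nuclei count, and values are medians of duplicate plates.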

[2] = system: NCI-H1395
How it was run: as §1

[3] = system: NCI-H1355
How it was run: as §1

[4] = system: 201T
How it was run: as §1

[5] = system: SK-MES-1
How it was run: as §1

[6] = system: HCC-366
How it was run: as §1

[7] = system: NCI-H2085
How it was run: as §1

[8] = system: SK-LU-1
How it was run: as §1

[9] = system: NCI-H647
How it was run: as §1

[10] = system: NCI-H322M
How it was run: as §1

[11] = system: HCC-78
How it was run: as §1

[12] = system: PC-14
How it was run: as §1

[13] = system: NCI-H1975
How it was run: as §1

[14] = system: BEN
How it was run: as §1

[15] = system: LU99A
How it was run: as §1

[16] = system: UMC-11
How it was run: as §1

[17] = system: NCI-H2087
How it was run: as §1

[18] = system: NCI-H2228
How it was run: as §1

[19] = system: NCI-H2126
How it was run: as §1

[20] = system: LOU-NH91
How it was run: as §1

[21] = system: HCC-44
How it was run: as §1

[22] = system: NCI-H1734
How it was run: as §1

SMILES: Oc1nc(-c2ccc(C(F)(F)F)cc2)nc2c1CSCC2 [XAV939] + CC1(C)CCC(c2ccc(Cl)cc2)=C(CN2CCN(c3ccc(C(=O)NS(=O)(=O)c4ccc(N[C@H](CCN5CCOCC5)CSc5ccccc5)c(S(=O)(=O)C(F)(F)F)c4)cc3)CC2)C1 [Navitoclax] (partner 0.5 µM)
- relative viability ([1]; first compound 0.08 µM): 0.407
- relative viability ([1]; first compound 0.253 µM): 0.231
- relative viability ([1]; first compound 0.8 µM): 0.362
- relative viability ([1]; first compound 2.53 µM): 0.44
- relative viability ([2]; first compound 0.08 µM): 1.11
- relative viability ([2]; first compound 0.253 µM): 1.33
- relative viability ([2]; first compound 0.8 µM): 1.2
- relative viability ([2]; first compound 2.53 µM): 1.16
- relative viability ([3]; first compound 0.08 µM): 0.913
- relative viability ([3]; first compound 0.253 µM): 0.825
- relative viability ([3]; first compound 0.8 µM): 0.805
- relative viability ([3]; first compound 2.53 µM): 0.637
- relative viability ([4]; first compound 0.08 µM): 1.21
- relative viability ([4]; first compound 0.253 µM): 1.13
- relative viability ([4]; first compound 0.8 µM): 1.09
- relative viability ([4]; first compound 2.53 µM): 1.16
- relative viability ([5]; first compound 0.08 µM): 1.21
- relative viability ([5]; first compound 0.253 µM): 1.12
- relative viability ([5]; first compound 0.8 µM): 1.12
- relative viability ([5]; first compound 2.53 µM): 1.14
- relative viability ([6]; first compound 0.08 µM): 1.12
- relative viability ([6]; first compound 0.253 µM): 1.09
- relative viability ([6]; first compound 0.8 µM): 1.05
- relative viability ([6]; first compound 2.53 µM): 0.942
- relative viability ([7]; first compound 0.08 µM): 1.1
- relative viability ([7]; first compound 0.253 µM): 1.1
- relative viability ([7]; first compound 0.8 µM): 1.13
- relative viability ([7]; first compound 2.53 µM): 0.882
- relative viability ([8]; first compound 0.08 µM): 0.674
- relative viability ([8]; first compound 0.253 µM): 0.9
- relative viability ([8]; first compound 0.8 µM): 0.714
- relative viability ([8]; first compound 2.53 µM): 0.791
- relative viability ([9]; first compound 0.08 µM): 1.18
- relative viability ([9]; first compound 0.253 µM): 0.94
- relative viability ([9]; first compound 0.8 µM): 0.881
- relative viability ([9]; first compound 2.53 µM): 0.877
- relative viability ([10]; first compound 0.08 µM): 1.26
- relative viability ([10]; first compound 0.253 µM): 0.748
- relative viability ([10]; first compound 0.8 µM): 1.21
- relative viability ([10]; first compound 2.53 µM): 1.03
- relative viability ([11]; first compound 0.08 µM): 0.842
- relative viability ([11]; first compound 0.253 µM): 0.736
- relative viability ([11]; first compound 0.8 µM): 0.825
- relative viability ([11]; first compound 2.53 µM): 0.613
- relative viability ([12]; first compound 0.08 µM): 1.04
- relative viability ([12]; first compound 0.253 µM): 0.906
- relative viability ([12]; first compound 0.8 µM): 1.03
- relative viability ([12]; first compound 2.53 µM): 0.956
- relative viability ([13]; first compound 0.08 µM): 1.08
- relative viability ([13]; first compound 0.253 µM): 0.784
- relative viability ([13]; first compound 0.8 µM): 1.06
- relative viability ([13]; first compound 2.53 µM): 0.768
- relative viability ([14]; first compound 0.08 µM): 0.0604
- relative viability ([14]; first compound 0.253 µM): 0.0746
- relative viability ([14]; first compound 0.8 µM): 0.0568
- relative viability ([15]; first compound 0.08 µM): 0.939
- relative viability ([15]; first compound 0.253 µM): 0.708
- relative viability ([15]; first compound 0.8 µM): 0.683
- relative viability ([15]; first compound 2.53 µM): 0.708
- relative viability ([16]; first compound 0.08 µM): 0.318
- relative viability ([16]; first compound 0.8 µM): 0.3
- relative viability ([16]; first compound 2.53 µM): 0.271
- relative viability ([17]; first compound 0.08 µM): 1.13
- relative viability ([17]; first compound 0.253 µM): 0.668
- relative viability ([17]; first compound 0.8 µM): 1
- relative viability ([17]; first compound 2.53 µM): 0.95
- relative viability ([18]; first compound 0.08 µM): 1.13
- relative viability ([18]; first compound 0.253 µM): 0.838
- relative viability ([18]; first compound 0.8 µM): 0.94
- relative viability ([18]; first compound 2.53 µM): 1.1
- relative viability ([19]; first compound 0.08 µM): 0.773
- relative viability ([19]; first compound 0.253 µM): 0.653
- relative viability ([19]; first compound 0.8 µM): 0.813
- relative viability ([19]; first compound 2.53 µM): 0.739
- relative viability ([20]; first compound 0.08 µM): 0.636
- relative viability ([20]; first compound 0.253 µM): 0.627
- relative viability ([20]; first compound 0.8 µM): 0.692
- relative viability ([20]; first compound 2.53 µM): 0.652
- relative viability ([21]; first compound 0.08 µM): 1.01
- relative viability ([21]; first compound 0.253 µM): 0.945
- relative viability ([21]; first compound 0.8 µM): 0.948
- relative viability ([21]; first compound 2.53 µM): 0.899
- relative viability ([22]; first compound 0.08 µM): 0.921
- relative viability ([22]; first compound 0.253 µM): 0.866
- relative viability ([22]; first compound 0.8 µM): 0.856
- relative viability ([22]; first compound 2.53 µM): 0.855

Source: the supplement of paper PMC10307832
